Type in all cases: in vivo, swine
The subject of assay [1] is gilts. Briefly: Example 5: estrus detection after 100, 200 or 400 mcg triptorelin gel. Conditions: raw average, PTK 2-07. The protocol: (§1) All gilts were individually fed MATRIX® as a top-dress for 14 or 15 days at the recommended rate of 15 mg/gilt/day. Gilts were withdrawn from MATRIX® feeding (last top-dress in the morning on Day 0) and allocated to each of the following treatments. Controls were vehicle gel treated (vehicle gel without triptorelin) at 120 (+/−2) hours following MATRIX® withdrawal (last top dress). The other gilts were given 100, 200 or 400 mcg triptorelin as the acetate in a methylcellulose gel formulation 120 (+/−2) hours following MATRIX® withdrawal. The four treatments were:
For post-treatment estrus detection, gilts were housed in individual pens. Boars were housed in separate rooms, and/or at least 12 m away and downwind. To elicit signs of estrus, a mature boar was walked slowly in the alley in front of the gilts' crates, exposing each test gilt to visual, auditory and olfactory signals from the boar for up to 5 minutes. In keeping with standard practice at commercial farms, while the boar was near the front of the gilt's crate, estrus was tested by an experienced person applying back pressure to the midsection of the gilt combined with side rubbing. Estrus was confirmed when a gilt stood rigidly to the back pressure, with no vocalization and with some indication of an ear reflex. Gilts were not exposed to boars during the first three days after withdrawal of MATRIX® (Day 0 to Day 2). Estrus detection was performed daily on all gilts from Day 3 to Day 7.
(§2) A single 2 mL dose of triptorelin gel or vehicle gel was deposited within approximately 1-2 cm posterior to the cervix with a catheter similar to those used for artificial insemination. The dose was delivered using a standard multi-dose applicator attached to the catheter. A new disposable sheath, which surrounds the catheter, was used for each gilt.

Another assay deals with LH. The assay can be described thus: Example 5: serum LH surge after triptorelin gel (jugular blood sampling). Conditions: for Magnitude of LH surge: maximum serum LH concentration; for Onset of LH surge / Time of maximum LH conc.: relative to time of triptorelin gel treatment; for Time of maximum LH conc.: in h (unit assumed); for Gilts, which displayed a LH surge: number of gilts. Here is the method: as §1
A catheter was inserted non-surgically into the jugular vein (Kraeling et al. 1982) of a subpopulation of gilts in each treatment group (vehicle gel, n=8; 100 mcg triptorelin, n=6; 200 mcg triptorelin, n=7 and 400 mcg triptorelin, n=6). Ten mL blood samples were collected every 15 minutes for one hour prior to treatment, immediately following treatment (0) and at 0.5, 1, 2, 4, 6, 12, 18, 24, 36 and 48 hours after treatment. Blood samples were maintained at 4° C. until centrifuged at 800×g for 15 minutes within 12 hours of collection. The resulting serum was stored frozen until assayed for LH using validated procedures for pig serum (Kesner et al., 1987 and Kraeling et al., 1982). Onset, duration, and magnitude of the LH surge were analyzed. The LH data were analyzed with the General Linear Models procedure of SAS. Differences between treatments were tested on least squares means estimates using the T test at P<0.05. Onset of the LH surge is when serum LH concentration is greater than or equal to two standard deviations of the mean of the pre-treatment serum LH concentrations. Duration of the LH surge is the period between onset and when serum LH concentration is again less than or equal to two standard deviations of the mean of the pre-treatment serum LH concentrations. Magnitude of the LH surge is the maximum serum LH concentration reached during the LH surge.
as §2

Assay [2] concerns gilts. The assay can be described thus: Example 5: ovulation monitoring by transrectal ultrasonography after 100, 200 or 400 mcg triptorelin gel at 120 h post-MATRIX. Conditions: 400 mcg T (n = 6 catheterized gilts).
Setting [3] is: 100 mcg T at 120 h after MATRIX withdrawal.
Setting [4] is: 200 mcg T at 120 h after MATRIX withdrawal.
[5] abbreviates: 400 mcg T at 120 h after MATRIX withdrawal.
Setting [6] is: 100 mcg T (n = 6), Least Squares Mean ± SE.
Setting [7] is: 200 mcg T (n = 7), Least Squares Mean.
Where [8] appears, read: 400 mcg T (n = 6), Least Squares Mean ± SE.

The record followed here is patent US10376558B2, “Method and compositions for synchronizing time of insemination in gilts” (UNITED-AH II, LLC, priority 2012, dated 2019).

Each structure is given as a SMILES string.

As for `CC(C)C[C@H](NC(=O)[C@@H](Cc1c[nH]c2ccccc12)NC(=O)[C@H](Cc1ccc(O)cc1)NC(=O)[C@H](CO)NC(=O)[C@H](Cc1c[nH]c2ccccc12)NC(=O)[C@H](Cc1c[nH]cn1)NC(=O)[C@@H]1CCC(=O)N1)C(=O)N[C@@H](CCCNC(=N)N)C(=O)N1CCC[C@H]1C(=O)NCC(N)=O` [T, pGlu-His-Trp-Ser-Tyr-D-Trp-Leu-Arg-Pro-Gly-NH2], the entries for the “Estrous Expression (%)” value with gilts [1] (setting [3]), in the assay with gilts [1] (setting [4]) and in the assay on gilts [1] (setting [5]) were 75.0%, 81.0% and 86.4%, respectively. For the same compound, the “Interval from MATRIX withdrawal to Estrus” value in the assay on gilts [1] (setting [3]) amounted to 134.4 h; in the assay with gilts [1] (setting [4]), 136.9 h; in the assay on gilts [1] (setting [5]), 133.9 h. Moreover, the “Duration of LH surge” value in the assay with LH (setting [6]) turned out to be 19 ± 2; in the assay with LH (setting [7]), 18; with LH (setting [8]), 17 ± 4. The “Magnitude of LH surge” value in the assay on LH (setting [6]) was determined as 3.94 ± 1.22; with LH (setting [7]), 8.98; with LH (setting [8]) it was 11.65 ± 12.35. For the same compound, the entries for the “Onset of LH surge” value in the assay on LH (setting [6]), in the assay with LH (setting [7]) and with LH (setting [8]) were 4 ± 3, 0.5 and 4 ± 4, respectively. In addition, the “Time of maximum LH conc.” value in the assay with LH (setting [6]) is 11 ± 7; in the assay on LH (setting [7]) it was 4; in the assay with LH (setting [8]), 12 ± 4. The “Gilts, which displayed a LH surge” value turned out to be 4 in the assay on LH (100 mcg T in gel at 120 h post-MATRIX (n = 6 catheterized gilts)), 1 with LH (200 mcg T in gel at 120 h post-MATRIX (n = 7 catheterized gilts)) and 5 in the assay on LH (400 mcg T in gel at 120 h post-MATRIX (n = 6 catheterized gilts)). Also, in the assay with gilts [2] (after treatment), the “Percentage ovulated by 48 hours” value is listed as 100%. Further, the “Time at which ovulation detected” value in the assay on gilts [2] (relative to time of triptorelin gel treatment, Least Squares Mean ± SE) was 40 ± 8 h.
